Measured values as given in US12629355B2, “Drug inhibitor against migration and invasion of cancer cells and methods of treating against metastasis of cancer cells” (HOWARD UNIVERSITY, priority 2019, dated 2026).

Legend:
Format in all cases: cell-based
U251 cells [1] = test: F-actin foci and pY397-FAK organization, immunofluorescence (FIG. 20); settings: 96 h, 2 ng/ml TGF-beta1
Excerpt: Cell cytoskeleton plays a significant role during the migration and invasion of cancer cells. Changes in the cytoskeleton accompanies the cell shape changes and which subsequently changes the dynamic actin polymerization and depolymerization process. The attachment of cells to the substrate is integrin dependent and as such it was postulated that the RACK1 dependent migration will also regulate the cytoskeleton changes. In this regard, F-actin foci helps stress fiber based directional filipodia development. To visualize F-actin, we used […] that labels the F-actins. FAK located at focal contact which is actin based anchoring junction that links the cells with the ECM and mostly used by motile cells like the metastatic cancer cells. FAK is known as the key regulator of the F-actin dynamics (Li et al., 2013). (Li S Y, et al., Focal adhesion kinase is a regulator of F-actin dynamics: New insights from studies in the testis, Spermatogenesis, 3 (3): e25385 (2013).
The presence of pY397-FAK can be seen in a linear organized way within the migratory structures but such organized presence of the pY397-FAK was not seen in the presence of the representative compound (SD29-14).
As to FIG. 20, and methods, U251 cells were grown on glass coverslip for 96 h in the presence or absence of SD29-14 containing MEM media with 2 ng/ml TGF-beta1 growth factor. […]

FAK = test: Localization of FAK, immunofluorescence (FIG. 13); settings: versus DMSO+TGF (5 ng/ml) control
Procedure: FIG. 13 presents in photomicrographs a comparison between an illustrative cancer in which the treatment involved using DMSO+TGF (5 ng/ml) as a control and the illustrative cancer cell in which the in vitro treatment involved using a compound according to a formulae (1), (2) or (3) herein+TGF (5 ng/ml). The block of four photomicrographs on the left is for the control. […] Inability to co-localize would inhibit the downstream modifications of FAK reported as needed for migration.
As to FIGS. 12 and 13, cells were grown to almost 80% confluency and then serum starved for 24 hours. Then treated with the representative compound SD 29-14 for additional 24 h. No TGFbeta1 was used in this assay. After 24 h, cells were prepared for the immunofluorescence imaging essentially with the same procedure as described for FIG. 9. The antibody for the FAK was purchased from GeneTex (Irvine, CA). The secondary was rabbit TRITC. The primary RACK1 antibody coupled with a FITC reporter was purchased from Santa Cruz Biotechnology (Dallas, TX).

U251 cells [2] = test: Filipodia/lamellipodia development of TGF-induced cells on Matrigel, Giemsa stain (FIG. 2, FIG. 4)
Procedure: After incubation, media and matrigels were carefully removed and adherent cells were washed three times with 1×PBS; to visualize cells, cells were incubated with Giemsa Stain (Sigma-Aldrich) (1:20 with water) for 10 minutes, washed in water until no blue color rinsed out from the well images under a Zeiss Compound microscope.
It is shown in the FIG. 2 and FIG. 3 that 100 uM of SD 29-14 is effective in inhibiting the migration potential of the two different representative cancer cell lines, which establishes this drug as a candidate anti-metastasis drug for treating against cancers where a role of RACK1 upregulation is or has been shown in the metastasis process. There are many reviews on the RACK1 protein the cancer cell migration (e.g., Li and Xie, 2015; Duff and Long, 2017, among others).
(§1) Efficacy for inhibiting migration at a lower concentration of a representative compound was also investigated. Cancer cell lines were treated under conditions as used above for FIG. 2 and FIG. 3 but with both 10 μM and 100 μM SD29-14.

RACK1 protein = biological target: T1, RACK1 protein (Homo sapiens, UniProt P63244); test: RACK1 protein expression, western blot (FIG. 7); settings: MCF-7 cells, 6 days, compound added on day 1 and day 4
T1 construct: endogenous in cells; host or cells: MCF-7
Procedure: As to FIG. 7, MCF-7 cells were washed three times in PBS after growth on MEM media for 6 days. The indicated compounds were added on day 1 and day 4 of the treatment. The cells were lysed in the lysis buffer (Cell Signaling, MA) supplemented with protease inhibitor cocktail (Sigma-Aldrich), Protein Tyrosine phosphatase inhibitors (Santa Cruz Biotechnology, TX), and N-Ethylamaleimide (Sigma-Aldrich) at 25 mM to inhibit de-sumoylation. Twenty five micrograms of proteins were loaded on the BIORAD company's 4-12% precast polyacrylamide gel, transferred to a PVDF membrane and then blocked with 5% non-fat milk (Biorad) for one hour, washed and incubated overnight at 4 C with the RACK1 antibody (1:2500 dilution) purchased from the Santa Cruz Biotechnology. After overnight incubation, the membrane was washed 3× in PBST and then incubated with a horseradish peroxidase-coupled mouse secondary antibody for an hour at room temperature and the bands were detected with enhanced chemiluminescence (Pierce, Rockford, IL, USA), according to standard methods. […] This served as the loading control.

U251 cells [3] = test: Actin stress fiber development in lamellipodia (FIG. 6); settings: U251 cells grown 72 h, versus DMSO
Excerpt: Actin stress fibers are known to regulate the mesenchymal migrating cells by regulating the myosin-based contractility to achieve directional cell migration (Vallenius 2013). […] As these stress fibers are needed for other cellular functions required for directional movement, a lack of a visible stress fibers should inhibit cells treated with a representative compound (SD 29-14) from acquiring necessary traction generation to migrate. Actin stress fiber development has been reported to be needed to generate traction forces, establishment of the front-to-back polarity axis, retraction of the trailing edge, and extracellular matrix remodeling-development that collectively regulates the directional movement of migrating cell (Vallenius 2013). The cells were grown 72 h at conditions described for the cells imaged in FIG. 4 and were photographed under a Zeiss brand compound microscope at 40× magnification.

MCF-7 cells = test: Filipodia/lamellipodia development of TGF-induced cells on Matrigel, Giemsa stain (FIG. 3, FIG. 5)
Procedure: About 1×10^5 Breast cancer cells (MCF-7) treated with DMSO or SD29-14 for 48 h were resuspended in serum free MEM media and were then plated on 1:6 diluted (with serum free media) matrigel (Basement membrane mimic) in the presence of Transforming Growth Factor (TGFbeta) which is a known inducer of EMT that lead to the migration-(Lamouille and Derynck (2009)), with DMSO or with SD29-14 and the cells were allowed to grow for 20 h on Matrigel. After incubation, media and matrigels were carefully removed and adherent cells were washed three times with 1×PBS; to visualize cells, cells were incubated with Giemsa Stain (Sigma-Aldrich) (1:20 with water) for 10 minutes, washed in water until no blue color rinsed out from the well images under a Zeiss Compound microscope.
as §1
The experimental methods, except for the different cell line, are essentially same as stated above as to FIG. 4.

RACK1 protein expression (RACK1 protein): significant of RACK1 proteins
SMILES: Nn1c(S)nnc1-c1cc(Cl)cc(Cl)c1 [SD 29-14]
number and intensity of F-actin foci (U251 cells [1]): reduced the number and intensity of the F-actin foci | localization of FAK (FAK): blocks localization of FAK | efficacy to inhibit filipodia and lamellipodia development (U251 cells [2]; 10 μM, 72 h grown (FIG. 4)): maintained | filipodia and lamellipodia development (U251 cells [2]; 100 uM, TGF on Matrigel, 48 h treated then 20 h on Matrigel): inhibition of the filipodia and lamellipodia development | actin stress fiber development in lamellipodia (U251 cells [3]): no visible stress fiber like radiating structures were visible | efficacy to inhibit filipodia and lamellipodia development (MCF-7 cells; 10 μM, 72 h grown (FIG. 5)): maintained | filipodia and lamellipodia development (MCF-7 cells; 100 uM, TGF-beta on Matrigel, 48 h treated then 20 h on Matrigel): the development of both filipodia and lamellipodia was inhibited
